The results in this text go back to patent EP1948196B1, “USE OF TETRAORGANOSILICON COMPOUNDS” (Salama, Zoser B., priority 2005, dated 2007).

Values after ≈ are worked out from the molar mass of the structure shown. Read-outs that look alike come from different tables or passages of the source.

The subject of data set [1] is Panc1 Pankreaskrebszellen. As to the kind of experiment: subG1 apoptotic fraction, propidium iodide, flow cytometry. Type of data set: cell-based. To be noted: 50 µg/ml, 4 Tage. Here is the method: (§1) Die Zellen (IEC6 mausartige Enterozyten; Panc1 Pankreaskrebszellen; Colo205 Kolonkarzinom) wurden mit 50 µg/ml Silanen inkubiert und nach 4-tägiger Aussetzung auf DNA eingefärbt (Propidiumiodid). Die SubG1 Zellteilung wurde mittels Durchflusscytometrie bestimmt.
(Flow cytometry measures light scatter and fluorescence of single cells or particles in a stream.)

For data set [2], the system named is IEC6 mausartige Enterozyten. The data set is described as above. Type of data set: cell-based. The conditions noted are these: 50 µg/ml, 4 Tage. As for the experimental part: as §1
Another data set has as its system Colo205 Kolonkarzinom. The data set is described as above. The conditions noted are these: 50 µg/ml, 4 Tage. Type of data set: cell-based. As for the experimental part:
as §1

In a further data set the test system is Normale Zellen. As to the kind of experiment: Mean IC50 over all normal cell lines. The conditions noted are these: for IC50: read-out: IC50 Normale Zellen (Durchschnitt ± SD). It counts as cell-based. As for the experimental part:
(§2) Die Silane 1, 5, 9, 10, 11, 13, 15, 16 wurden in Ethanol gelöst und in MTT Assays in einer anfänglichen Konzentration von 200 µg/ml (5 Lösungsschritte 200 - 12.5 µg/ml) verwendet. Die Platten wurde für eine Dauer.von 4 Tagen inkubiert und die Entwicklungsfähigkeit mithilfe des EZ4U Test bestimmt. Die IC50 Werte wurden ausgehend von Dosierungs-Reaktions-Linien berechnet Zelllinien: Colo 205 and HT29 - Kolonkarzinom; BxPC3 and MIAPaCa2 - Pankreaskrebs; CRO2B - karzinoid, A431 Epidermalkarzinom; normale Zellen: WI38 - humane embryonale Fibroblasten; NIH3T3 - mausartige Fibroblasten; IEC6 - mausartige Enterozyten.
(§3) Mittelwerte-IC50 für alle Krebs- oder normalen Zelllinien: […]

For another data set, the system named is CRO2B - karzinoid. Description: MTT assay / EZ4U test, 4 days. The conditions noted are these: for IC50: read-out: IC50 CR02B. Type of data set: cell-based. As for the experimental part: as §2
Background: Tetrazolium dyes change colour on reduction, which living cells bring about.

Data set [3] has as its system IEC6 - mausartige Enterozyten. Description: MTT assay / EZ4U test, 4 days. Type of data set: cell-based. To be noted: for IC50: Rattus norvegicus. Here is the method:
as §2

The subject of data set [4] is NIH3T3 - mausartige Fibroblasten. Description: MTT assay / EZ4U test, 4 days. To be noted: for IC50: Mus musculus. Type of data set: cell-based. As for the experimental part: as §2
The next data set deals with BxPC3 - Pankreaskrebs. Description: MTT assay / EZ4U test, 4 days. It counts as cell-based. The conditions noted are these: for IC50: Homo sapiens. Here is the method: as §2
The next data set deals with A431 Epidermalkarzinom. As to the kind of experiment: MTT assay / EZ4U test, 4 days. The conditions noted are these: for IC50: Homo sapiens. Type of data set: cell-based. As for the experimental part: as §2
The subject of another data set is HT29 - Kolonkarzinom. As to the kind of experiment: MTT assay / EZ4U test, 4 days. Type of data set: cell-based. The conditions noted are these: for IC50: Homo sapiens. As for the experimental part: as §2
Another data set concerns MIAPaCa2 - Pankreaskrebs. Description: MTT assay / EZ4U test, 4 days. It counts as cell-based. The conditions noted are these: for IC50: Homo sapiens. Here is the method:
as §2

The test system of data set [5] is WI38 - humane embryonale Fibroblasten. As to the kind of experiment: MTT assay / EZ4U test, 4 days. The conditions noted are these: for IC50: Homo sapiens. Type of data set: cell-based. As for the experimental part: as §2
The subject of another data set is Colo 205 - Kolonkarzinom. As to the kind of experiment: MTT assay / EZ4U test, 4 days. Type of data set: cell-based. As for the experimental part: as §2
Another data set concerns Krebszellen. Description: Mean IC50 over all cancer cell lines. Type of data set: cell-based. The conditions noted are these: for IC50: read-out: IC50 Krebszellen (Durchschnitt ± SD). Here is the method: as §2, §3
For a further data set, the system named is colo205 (Kofon-Karzinom). Description: MTT test, triplicate, two-fold dilutions. It counts as cell-based. To be noted: for IC50: Homo sapiens. Here is the method:
(§4) Die Silan wurden in Ethanol aufgelöst und in Zellkulturmedien in Konzentrationen von bis zu 500 µg/ml resuspendiert. Es wurden MTT Tests in dreifacher Ausführung durchgeführt, für welche doppelte Lösungen (7 Schritte) und colo205 (Kofon-Karzinom), BxPC3 (pankreatisches Adenokarzinom) sowie T47D (Brustkrebs) benutzt wurden.

The next data set relates to T47D (Brustkrebs). Description: MTT test, triplicate, two-fold dilutions. Type of data set: cell-based. To be noted: for IC50: Homo sapiens, T47D, read-out: IC50 T47D. As for the experimental part:
as §4

The subject of data set [6] is BxPC3 (pankreatisches Adenokarzinom). Description: MTT test, triplicate, two-fold dilutions. Type of data set: cell-based. The conditions noted are these: for IC50: Homo sapiens. As for the experimental part:
as §4

The next data set deals with Osteosarkome. As to the kind of experiment: Effect on osteosarcomas.
A further data set has as its system Maus. Description: Pharmacological observation in the mouse (central, vegetative and toxic effects, acute toxicity). Type of data set: in vivo. From the text: Pharmakologische Untersuchungen an der Maus
Die Verbindungen wurden an der Maus auf zentrale, vegetative und toxische Effekte geprüft. Durch systemische Einzelbeobachtungen sind neben der akuten Toxizität (orienberende letale Dosis, oLD) zentrale und vegetative Wirkungen der Testsubstanzen, insbesondere Effekte auf die Motorik und das Reaktionsvermögen, die Haut- und Rektaltemperatur sowie auf die Pupillenmotorik erfasst worden. Die getesteten Dosierungen betrugen 5 •10^-4, 1 • 10^-3 und 5 • 10^-3 mol/kg Körpergewicht Letale Wirkungen konnten bei keiner der Verbindungen beobachtet werden. Die oLD lag für Di(tetradecanoyloxy)dimethylsilan und Di(octadecanoyloxy)dimethylsilan unter 1 • 10^-3 mol/kg Körpergewicht für alle übrigen Verbindungen unter 5 • 10^-3 mollkg Körpergewicht.

In the case of `CCCCCCCCCC(=O)O[Si](CC)(CC)OC(=O)CCCCCCCCC` [Si9, Didecanoyloxy - diethylslan], in [1], the “subG1 apoptotische Zellteilung Panc1” value is 42,8 ± 1,6. Besides, the “subG1 apoptotische Zellteilung IEC6” value in data set [2] is given as 0,9 ± 0.0. Also, the “subG1 apoptotische Zellteilung Colo205” value in the data set on Colo205 Kolonkarzinom is given as 32,1 ± 1,41. The “IC50 Normale Zellen (Durchschnitt ± SD)” value with Normale Zellen (mean over normal cell lines) was 29,5 ± 10,8 µg/ml. Further, in the data set with CRO2B - karzinoid (200 - 12.5 µg/ml, 4 Tage), the “IC50 CR02B” value was 31.5 µg/mL (≈ 73.5 µM). Moreover, the “IC50 IEC6” value in data set [3] (200 - 12.5 µg/ml, 4 Tage) came to 17.2 µg/mL (≈ 40.1 µM). Also, the “IC50 NIH3T3” value in data set [4] (200 - 12.5 µg/ml, 4 Tage) stood at 34.4 µg/mL (≈ 80.2 µM). In addition, the “IC50 BxPC3” value with BxPC3 - Pankreaskrebs (200 - 12.5 µg/ml, 4 Tage) was found to be 40.0 µg/mL (≈ 93.3 µM); in data set [6] (up to 500 µg/ml) it was 15 µg/mL (≈ 35 µM). Further, the “IC50 A431” value in the data set on A431 Epidermalkarzinom (200 - 12.5 µg/ml, 4 Tage) is 29.4 µg/mL (≈ 68.6 µM). Also, the “IC50 HT29” value with HT29 - Kolonkarzinom (200 - 12.5 µg/ml, 4 Tage) turned out to be 41.5 µg/mL (≈ 96.8 µM). Also, the “IC50 MlAPaCa2” value in the data set with MIAPaCa2 - Pankreaskrebs (200 - 12.5 µg/ml, 4 Tage) came to 37.5 µg/mL (≈ 87.5 µM). In data set [5] (200 - 12.5 µg/ml, 4 Tage), the “IC50 WI38” value was 37.0 µg/mL (≈ 86.3 µM). Moreover, the “IC50 Colo205” value in the data set with Colo 205 - Kolonkarzinom (200 - 12.5 µg/ml, 4 Tage) came out at 40.6 µg/mL (≈ 94.7 µM); in the data set with colo205 (Kofon-Karzinom) (up to 500 µg/ml), 60 µg/mL (≈ 140 µM). The “IC50 Krebszellen (Durchschnitt ± SD)” value with Krebszellen (mean over cancer cell lines) is on record as 35,6 ± 6,0 µg/ml. For the same molecule, in the data set with T47D (Brustkrebs) (up to 500 µg/ml), the “IC50 T47D” value was 40 µg/mL (≈ 93.3 µM).

In the case of `CCCCCCCCCCCCCCCC(=O)O[Si](C)(C)OC(=O)CCCCCCCCCCCCCCC` [Si16, Di (hexadecanoyloxy) dimethylsilan], in the data set with Osteosarkome, the “Wirkung auf Osteosarkome” value is reported as “zeigen eine Wirkung”. The “subG1 apoptotische Zellteilung Panc1” value in data set [1] is given as 22,2 ± 1,6. The “subG1 apoptotische Zellteilung IEC6” value in data set [2] is recorded as 2,45±0,21. Also, the “subG1 apoptotische Zellteilung Colo205” value in the data set with Colo205 Kolonkarzinom is reported as 3,55 ± 0,07. In addition, the IC50 (usually the concentration that gives 50% inhibition) in the data set with Normale Zellen (mean over normal cell lines) turned out to be 31.9 µg/mL (≈ 56.1 µM); with CRO2B - karzinoid (200 - 12.5 µg/ml, 4 Tage), 31.5 µg/mL (≈ 55.4 µM); in [3] (IEC-6, 200 - 12.5 µg/ml, 4 Tage, read-out: IC50 IEC6), 17.2 µg/mL (≈ 30.2 µM); in data set [4] (NIH3T3, 200 - 12.5 µg/ml, 4 Tage, read-out: IC50 NIH3T3), 42.5 µg/mL (≈ 74.7 µM); with BxPC3 - Pankreaskrebs (BXPC-3, 200 - 12.5 µg/ml, 4 Tage, read-out: IC50 BxPC3) it was 12.5 µg/mL (≈ 22 µM); in the data set with A431 Epidermalkarzinom (A-431, 200 - 12.5 µg/ml, 4 Tage, read-out: IC50 A431), 34.5 µg/mL (≈ 60.6 µM). Moreover, the IC50 with HT29 - Kolonkarzinom (HT-29, 200 - 12.5 µg/ml, 4 Tage, read-out: IC50 HT29) came to 34.4 µg/mL (≈ 60.5 µM); with MIAPaCa2 - Pankreaskrebs (MIA PaCa-2, 200 - 12.5 µg/ml, 4 Tage, read-out: IC50 MlAPaCa2), 400 µg/mL (≈ 703 µM); in data set [5] (WI-38, 200 - 12.5 µg/ml, 4 Tage, read-out: IC50 WI38) it was 36 µg/mL (≈ 63.3 µM); in the data set on Krebszellen (mean over cancer cell lines), 28.2 µg/mL (≈ 49.6 µM); in the data set on colo205 (Kofon-Karzinom) (COLO 205, up to 500 µg/ml, read-out: IC50 Colo205), 500 µg/mL (≈ 879 µM); in the data set with T47D (Brustkrebs) (up to 500 µg/ml), 15 µg/mL (≈ 26.4 µM). In addition, in data set [6] (BXPC-3, up to 500 µg/ml, read-out: IC50 BxPC3), the 50% inhibitory concentration (IC50) came out at 45 µg/mL (≈ 79.1 µM). In addition, the “zentrale, vegetative und toxische Effekte (Verhaltensänderungen)” value in the data set with Maus (1•10^-3 mol/kg) is given as “keine Verhaltensänderungen”; in the data set on Maus (5•10^-3 mol/kg), “Ataxie, Piloerektion, Grifistärkesenkung”; in the data set with Maus (5•10^-4 mol/kg), “keine Verhaltensänderungen”.

Consider `CCCCCCCCCCCCCCCCC(=O)O[Si](CC)(CC)OC(=O)CCCCCCCCCCCCCCCC` [Si1, Di (heptadecanoyloxy) diethylsilan], for which the “subG1 apoptotische Zellteilung Panc1” value in [1] is reported as 57,7 ± 0,07. In data set [2], the “subG1 apoptotische Zellteilung IEC6” value is listed as 6,55 ± 0,49. The “subG1 apoptotische Zellteilung Colo205” value with Colo205 Kolonkarzinom was 3.0 ± 0,14. Further, the IC50 in the data set on Normale Zellen turned out to be 30.1 µg/mL (≈ 48.2 µM); with CRO2B - karzinoid it was 22.8 µg/mL (≈ 36.5 µM); in [3] (IEC-6, read-out: IC50 IEC6), 28.1 µg/mL (≈ 45 µM); in data set [4] (NIH3T3, read-out: IC50 NIH3T3), 36.2 µg/mL (≈ 57.9 µM); in the data set on BxPC3 - Pankreaskrebs (BXPC-3, read-out: IC50 BxPC3), 37 µg/mL (≈ 59.2 µM); with A431 Epidermalkarzinom (A-431, read-out: IC50 A431) it was 31.8 µg/mL (≈ 50.9 µM). For the same molecule, the half-maximal inhibitory concentration (IC50) in the data set on HT29 - Kolonkarzinom (HT-29, read-out: IC50 HT29) came to 41.5 µg/mL (≈ 66.4 µM); in the data set on MIAPaCa2 - Pankreaskrebs (MIA PaCa-2, read-out: IC50 MlAPaCa2), 50 µg/mL (≈ 80 µM); in data set [5] (WI-38, read-out: IC50 WI38) it was 26.2 µg/mL (≈ 41.9 µM); in the data set with Colo 205 - Kolonkarzinom (Homo sapiens, COLO 205, read-out: IC50 Colo205), 37 µg/mL (≈ 59.2 µM); in the data set on Krebszellen, 33.2 µg/mL (≈ 53.1 µM); in the data set on colo205 (Kofon-Karzinom) (COLO 205, read-out: IC50 Colo205) it was 125 µg/mL (≈ 200 µM). For the same molecule, the half-inhibitory concentration (IC50) was 15 µg/mL (≈ 24 µM) in the data set on T47D (Brustkrebs) and 15 µg/mL (≈ 24 µM) in data set [6] (BXPC-3, read-out: IC50 BxPC3).
